Values quoted from earlier work in patent publication US10702520B1, “Pharmaceutical compositions of posaconazole” (SLAYBACK PHARMA LLC, priority 2019, dated 2020).
Read-outs that look alike come from different tables or passages of the source.

Structure (SMILES): CCC(C)n1ncn(-c2ccc(N3CCN(c4ccc(OC[C@H]5CO[C@](Cn6cncn6)(c6ccc(Cl)cc6Cl)O5)cc4)CC3)cc2)c1=O (mixture of isomers) [Itraconazole]
- solubility (in 0.1 N Hydrochloric acid): 6 µg/mL
- solubility (in water): less than 1 μg/mL

Structure (SMILES): CC[C@@H]([C@H](C)O)n1ncn(-c2ccc(N3CCN(c4ccc(OC[C@@H]5CO[C@@](Cn6cncn6)(c6ccc(F)cc6F)C5)cc4)CC3)cc2)c1=O [Posaconazole free base, 4-[4-[4-[4-[[(3R,5R)-5-(2,4-difluorophenyl)tetrahydro-5-(1H-1,2,4-triazol-1-ylmethyl)-3-furanyl]methoxy]phenyl]-1-piperazinyl]phenyl]-2-[(1S,2S)-1-ethyl-2-hydroxypropyl]-2,4-dihydro-3H-1,2,4-triazol-3-one]
- solubility (at gastric pH): approximately 0.8 mg/mL
- solubility (pH about 6.4 or higher): less than 1 μg/mL
